According to patent publication US8476197B2, “Aminopropenoates as fungicides” (priority 2009, dated 2013):
Marks after values point to notes of the source that are not given here.

Settings: pH 2.3

Compound | Log P
CON(C)C(=O)C(C#N)=C(NC(C)C(C)C)c1cccnc1Cl (centres unmarked) [Compound 1246] | 2.68
CCN(C)C(=O)C(C#N)=C(NC(C)C(C)C)c1cccnc1Cl (centres unmarked) [Compound 1282] | 2.91
CC(C)C(C)NC(=O)C(C#N)=C(NC(C)C(C)C)c1cccnc1Cl (centres unmarked) [Compound 1283] | 4.02^[c]; 4.02^[b]

Same assay, conditions: pH 2.7

Compound | Log P
C=CC(COCc1ccccc1)NC(=C(C#N)C(=O)OCC)c1cccnc1Cl (centres unmarked) [Compound 1197] | 3.8^[a]
CC#CC(C)NC(=C(C#N)C(=O)OCC)c1cccnc1Cl (centres unmarked) [Compound 1198] | 3.02^[a]
CCNC(=O)C(C#N)=C(NC(C)C(C)C)c1cccnc1C#N (centres unmarked) [Compound 1199] | 2.64^[a]
CCNC(=O)C(C#N)=C(NC(C)C(C)C)c1ccnc(Cl)c1Cl (centres unmarked) [Compound 1200] | 3.57^[a]
CCNC(=O)C(C#N)=C(NC(C)c1ccccn1)c1ccnc(Cl)c1Cl (centres unmarked) [Compound 1201] | 2.53^[a]
CCOC(=O)C(C#N)=C(NC(C)C(C)C)c1cn(C)nc1I (centres unmarked) [Compound 1202] | 3.22^[a]
CCOC(=O)C(C#N)=C(NC(C)C(C)C)c1cn(C)nc1C (centres unmarked) [Compound 1203] | 2.8^[a]
CCOC(=O)C(C#N)=C(NC(C)c1ccccn1)c1cn(C)nc1C (centres unmarked) [Compound 1204] | 1.99^[a]
CCOC(=O)C(C#N)=C(NC(C)C(C)C)c1cn(C)nc1CC (centres unmarked) [Compound 1205] | 3.13^[a]
CCOC(=O)C(C#N)=C(NC(C)c1ccccn1)c1cn(C)nc1CC (centres unmarked) [Compound 1206] | 2.25^[a]
CCOC(=O)C(C#N)=C(NC(C)c1ccccn1)c1cn(C)nc1C(C)C (centres unmarked) [Compound 1207] | 2.58^[a]
CCOC(=O)C(C#N)=C(NC(C)C(C)C)c1cn(C)nc1C(C)C (centres unmarked) [Compound 1208] | 3.46^[a]
CCOC(=O)C(C#N)=C(NC(C)C(C)C)c1ccnc(Br)c1Cl (centres unmarked) [Compound 1209] | 3.94^[a]
CCNC(=O)C(C#N)=C(NC(C)C(C)C)c1ccnc(Br)c1Cl (centres unmarked) [Compound 1210] | 3.6^[a]
CCOC(=O)C(C#N)=C(NC(C)C(C)C)c1ccnc(C)c1Cl (centres unmarked) [Compound 1211] | 3.51^[a]
CCOC(=O)C(C#N)=C(NC(C)c1nccs1)c1cn(C)nc1C (centres unmarked) [Compound 1212] | 2.11^[a]
CCOC(=O)C(C#N)=C(NC(C)c1nccs1)c1cn(C)nc1CC (centres unmarked) [Compound 1213] | 2.35^[a]
CCOC(=O)C(C#N)=C(NC(C)c1nccs1)c1cn(C)nc1C(C)C (centres unmarked) [Compound 1214] | 2.62^[a]
CCOC(=O)C(C#N)=C(NC(C)(C)c1ccc(Cl)cc1)c1cn(C)nc1C(F)F [Compound 1215] | 3.71^[a]
CCOC(=O)C(C#N)=C(Nc1ccccc1Cl)c1cn(C)nc1C(F)F [Compound 1216] | 3.15^[a]
CCOC(=O)C(C#N)=C(Nc1ccc(C#N)cc1)c1cn(C)nc1C(F)F [Compound 1217] | 2.64^[a]
CCOC(=O)C(C#N)=C(NC(C#N)c1ccccc1Br)c1cn(C)nc1C(F)F (centres unmarked) [Compound 1218] | 3.13^[a]
CCOC(=O)C(C#N)=C(NC(C#N)c1cccc(Cl)c1Cl)c1cn(C)nc1C(F)F (centres unmarked) [Compound 1219] | 3.44^[a]
C#CCC(C#N)NC(=C(C#N)C(=O)OCC)c1cn(C)nc1C(F)F (centres unmarked) [Compound 1220] | 2.33^[a]
CCOC(=O)C(C#N)=C(NC(C#N)Cc1ccccc1)c1cn(C)nc1C(F)F (centres unmarked) [Compound 1221] | 2.98^[a]
CCOC(=O)C(C#N)=C(NC(c1ccc(Cl)cc1)C(F)(F)F)c1cn(C)nc1C(F)F (centres unmarked) [Compound 1222] | 4.01^[a]
CCOC(=O)C(C#N)=C(NC(Cc1ncccc1C)C(F)(F)F)c1cn(C)nc1C(F)F (centres unmarked) [Compound 1223] | 2.94^[a]

Compound | Log P
CCOC(=O)C(C#N)=C(NC(c1ccccc1)C(F)(F)F)c1cn(C)nc1C(F)F (centres unmarked) [Compound 1224] | 3.55^[a]
CCOC(=O)C(C#N)=C(NC(C)c1cccc(OC)c1)c1cn(C)nc1C(F)F (centres unmarked) [Compound 1225] | 3.21^[a]
CCOC(=O)C(C#N)=C(Nc1ccccc1C(=O)C1CC1)c1cn(C)nc1C(F)F [Compound 1226] | 3^[a]
CCOC(=O)C(C#N)=C(Nc1ccccc1OC(F)(F)F)c1cn(C)nc1C(F)F [Compound 1227] | 3.42^[a]
CCOC(=O)C(C#N)=C(Nc1ccccc1SCC)c1cn(C)nc1C(F)F [Compound 1228] | 3.46^[a]
CCOC(=O)C(C#N)=C(NC(C)(C)c1ccc(OC)cc1)c1cn(C)nc1C(F)F [Compound 1229] | 3.35^[a]
CCOC(=O)C(C#N)=C(NC(C#N)c1ccccc1)c1cn(C)nc1C(F)F (centres unmarked) [Compound 1230] | 2.94^[a]
CCOC(=O)C(C#N)=C(NC(C#N)c1ccc(Cl)cc1Cl)c1cn(C)nc1C(F)F (centres unmarked) [Compound 1231] | 3.55^[a]
CCOC(=O)C(C#N)=C(NC(C#N)c1cnn(-c2ccccc2)c1)c1cn(C)nc1C(F)F (centres unmarked) [Compound 1232] | 3.15^[a]
CCOC(=O)C(C#N)=C(NC(C)COCc1ccc(C(F)(F)F)cc1)c1cn(C)nc1C(F)F (centres unmarked) [Compound 1233] | 3.99^[a]
CCOC(=O)C(C#N)=C(NC(C)CSc1ccc(Cl)cc1)c1cn(C)nc1C(F)F (centres unmarked) [Compound 1234] | 3.87^[a]
CCOC(=O)C(C#N)=C(NC(C)(C)C#Cc1ccc(C#N)cc1)c1cn(C)nc1C(F)F [Compound 1238] | 3.69^[a]
CCNC(=O)C(C#N)=C(NC(C)C(C)C)c1ccnc(C)c1Cl (centres unmarked) [Compound 1249] | 3.08^[a]
CCOC(=O)C(C#N)=C(NCC(N)=O)c1cn(C)nc1C(F)F [Compound 1255] | 2.1^[a]
CCOC(=O)C(C#N)=C(Nc1ccccc1Cl)c1cccnc1Cl [Compound 1263] | 3.35^[a]
CCOC(=O)C(C#N)=C(Nc1ccc(N(C)C)cc1)c1cccnc1Cl [Compound 1264] | 3.17^[a]
CCOC(=O)C(C#N)=C(Nc1ccc(C#N)cc1)c1cccnc1Cl [Compound 1265] | 2.73^[a]
CCOC(=O)C(C#N)=C(Nc1cccc(SC)c1)c1cccnc1Cl [Compound 1266] | 3.42^[a]
CCOC(=O)C(C#N)=C(NC(C)(C)C#Cc1ccc(C)cc1)c1cccnc1Cl [Compound 1268] | 4.41^[a]
CCOC(=O)C(C#N)=C(Nc1ccc2ncsc2c1)c1cccnc1Cl [Compound 1269] | 2.54^[a]
CCOC(=O)C(C#N)=C(NC(C)(C)C=C(Cl)Cl)c1cccnc1Cl [Compound 1271] | 3.55^[a]
CCOC(=O)C(C#N)=C(NC(C)(C)C#Cc1ccc(C#N)cc1)c1cccnc1Cl [Compound 1272] | 3.67^[a]
CCOC(=O)C(C#N)=C(NC(C)(C)C(C)(C)C)c1cccnc1Cl [Compound 1273] | 3.8^[a]
CCOC(=O)C(C#N)=C(NC(C)(C)C(=O)OC)c1cccnc1Cl [Compound 1274] | 2.66^[a]
CC#CC1(NC(=C(C#N)C(=O)OCC)c2cccnc2Cl)CCCC1 [Compound 1275] | 3.69^[a]
CCOC(=O)C(C#N)=C(NC(C)c1nccs1)c1ccnc(Cl)c1Cl (centres unmarked) [Compound 1276] | 2.96
CCNC(=O)C(C#N)=C(NC(C)C(C)C)c1cn(C)nc1C(F)F (centres unmarked) [Compound 1278] | 2.71^[a]

Same assay, conditions: pH 7.5

Compound | Log P
CON(C)C(=O)C(C#N)=C(NC(C)C(C)C)c1cccnc1Cl (centres unmarked) [Compound 1246] | 2.67
CCOC(=O)C(C#N)=C(NC(C)c1nccs1)c1ccnc(Cl)c1Cl (centres unmarked) [Compound 1276] | 2.91
CC(NC(=C(C#N)C(=O)OC1COC1)c1cccnc1Cl)C1CC1 (centres unmarked) [Compound 1281] | 2.31
CCN(C)C(=O)C(C#N)=C(NC(C)C(C)C)c1cccnc1Cl (centres unmarked) [Compound 1282] | 2.9
CC(C)C(C)NC(=O)C(C#N)=C(NC(C)C(C)C)c1cccnc1Cl (centres unmarked) [Compound 1283] | 4.02^[c]; 4.02^[b]
